Common to all, as to experiment: growth of human tumour cells (NCI), 48 h
The test system of experiment [1] is OVCAR-5 ovarian.
Experiment [2] deals with RXF 393 renal.
In experiment [3] the test system is KM12 colon.
Experiment [4] has as its system HOP-92 NSCLC.
In experiment [5] the test system is MALME-3M melanoma.
In experiment [6] the test system is ACHN renal.
Experiment [7] deals with NCI/ADR-RES ovarian.
The test system of experiment [8] is SF-268 CNS.
For experiment [9], the system named is NCI-H226 lung.
The test system of experiment [10] is LOX IMVI melanoma.

These results are taken from PubChem BioAssay (NCI).

“And” between values parts separate entries of the source, which are not always exact repeats. Equal entries are not always repeated.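 Step 1: Grow cells in 96-well plates. Step 2: Expose to compound for 48 hours at 5 concentrations. Step 3: Interpolate endpoints linearly; if unreached, use highest concentration. GI50 is the concentration that inhibits growth by half. TGI is the concentration that stops growth completely.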 A value given as a limit tells only on which side of the number the result lay.

`CC(C)(CO)Nc1c(O)c2c(c(O)c1Cl)C(=O)C=CC2=O`: the TGI in [1] was determined as 3.02 µM; in experiment [2], 3.31 µM; in experiment [3] it was 2.78 µM; in experiment [4] it was 3.3 µM; in [5], 3.33 µM; in [6], 3.08 µM. Also, the TGI in [7] is 3.65 µM; in [8] it was 6.03 µM; in experiment [9], 4.26 µM; in [10], 1.19 µM.
For the molecule `c1ccc2c(c1)[C@@H]1O[C@@H]1[C@@]13O[C@@]21[C@H]1O[C@H]1c1ccccc13`, the TGI in experiment [1] was determined as 34.8 µM; in [2], 25.7 µM; in experiment [3] it was 29.2 µM; in experiment [4] it was 23.4 µM; in experiment [5] it was 26.3 µM; in [6], 28.9 µM. The TGI in experiment [7] stood at 39.6 µM; in experiment [8], 28.3 µM; in [9], 31.3 µM; in experiment [10] it was 27.7 µM.
For `Cc1nc2ccccc2nc1N1CCCC1`, the TGI in experiment [1], in experiment [2], in experiment [3], in experiment [4], in experiment [5] and in experiment [6] was above 100 µM in each case. Besides, the TGI in experiment [7], in [8], in experiment [9] and in [10] was above 100 µM throughout.
Turning to `Fc1sc2c(c1F)C1CCC2C1` (centres undefined), the TGI in [1], in experiment [2], in experiment [3], in [4], in [5] and in experiment [6] was above 100 µM throughout. Moreover, the TGI in [7], in experiment [8], in experiment [9] and in experiment [10] was above 100 µM in each case.
For `CC(=O)c1nc(C#N)c(N)o1`, the TGI in experiment [1], in experiment [2], in [3], in experiment [4], in experiment [5] and in experiment [6] was above 100 µM throughout. For the same molecule, the TGI in experiment [7], in experiment [8], in experiment [9] and in [10] was above 100 µM throughout.
`CCOC(=O)/C=C/C(Br)=C(Br)/C=C/C(=O)OCC`: the TGI stood at 34.9 µM in experiment [1]; 24.9 µM in experiment [2]; 32.6 µM in experiment [3]; 37.1 µM in experiment [4]; 17.5 µM in [5]; 25.8 µM in [6]. The TGI in experiment [7] worked out at 64.8 µM; in experiment [8], 40.4 µM; in [9], 56.1 µM; in [10], 7.44 µM.
With `Nc1nc(Cl)cc(NCC2CC(O)(CO)C2)n1` (centres undefined), the TGI in experiment [1], in [2], in [3], in experiment [4], in experiment [5] and in [6] was above 100 µM in each case. Moreover, the TGI in [7], in [8], in [9] and in experiment [10] was above 100 µM in each case.
For `CC(=O)OCC12C(OC(C)=O)C[C@@H](C)C3(CC(c4ccoc4)OC3=O)C1CCC(OC(C)=O)C21CO1` (some centres undefined), the TGI in [1], in experiment [2], in [3], in experiment [4], in [5] and in experiment [6] was above 100 µM each time. Besides, the TGI in experiment [7], in experiment [8], in experiment [9] and in experiment [10] was above 100 µM in each case.
In the case of `CC1CC2OC(=N)C1(C#N)C2(C#N)C#N` (centres undefined), the TGI in experiment [1] is 48.5 µM; in [2], 31.1 µM; in experiment [3], above 100 µM; in experiment [4], 36 µM; in [5] it was 48.9 µM; in experiment [6], above 100 µM. The TGI is above 100 µM in [7], 66.3 µM in [8], above 100 µM in experiment [9] and 31 µM in [10].
For `Cc1cccc(-c2cc(=O)c3cc(C)cnc3[nH]2)c1`, the TGI in experiment [1] was above 100 µM; in experiment [2], above 100 µM; in experiment [3], 16.4 µM; in [4] it was above 100 µM; in experiment [5], above 100 µM; in [6], above 100 µM. The TGI is 0.394 µM in experiment [7], above 100 µM in experiment [8], 2.79 µM in experiment [9] and above 100 µM in experiment [10].
Regarding `CN1C(=O)[C@](C)(Cc2ccc(F)cc2)N(C(=O)OC(C)(C)C)[C@@H]1C(C)(C)C`, the TGI is above 100 µM in [1]; 59.9 µM in experiment [2]; above 100 µM in experiment [3]; above 100 µM in [4]; above 100 µM in experiment [5]; above 100 µM in [6]. For the same molecule, the TGI in experiment [7] is 44.8 µM; in experiment [8] it was above 100 µM; in experiment [9], 67.3 µM; in experiment [10], 53 µM.
Turning to `O=C1CCc2c(sc3ncnc(Nc4cccc(Br)c4)c23)C1`, the TGI was 23.4 µM in experiment [1]; 7.51 µM in experiment [2]; 12.3 µM in experiment [3]; 9.21 µM in [4]; 4.85 µM in experiment [5]; 8.04 µM in experiment [6]. Moreover, the TGI was above 26.7 µM in experiment [7], 15.2 µM in experiment [8], 14.8 µM in experiment [9] and 12.9 µM in [10].
Take `Nc1nn2cc(-c3ccccc3)[n+](CC(=O)c3ccccc3)c2s1`: the TGI was 53.6 µM in experiment [1]; 62.4 µM in experiment [2]; 47.1 µM in [3]; 35.4 µM in [4]; 27.3 µM in experiment [5]; above 100 µM in experiment [6]. In addition, the TGI was above 100 µM in experiment [7], 50.6 µM in [8], above 100 µM in experiment [9] and 35.4 µM in experiment [10].
Take `CCOC(=O)CCC1(C(=O)O[C@@H]2C[C@H](C)CC[C@H]2C(C)C)CCCCC1=O` (some centres undefined): the TGI in experiment [1], in experiment [2], in experiment [3], in [4], in experiment [5] and in [6] was above 100 µM throughout. The TGI in experiment [7], in experiment [8], in [9] and in experiment [10] was above 100 µM in each case.
Take `CC1=NNC(N)=N/C1=C\C(Sc1ccc(Cl)cc1)c1ccc(Cl)cc1Cl` (centres undefined): the TGI in experiment [1] is 36.7 µM; in experiment [2], 50.9 µM; in experiment [3], 34.2 µM; in [4], above 50.5 µM; in experiment [5], 28.8 µM; in experiment [6], 29.1 µM. The TGI is 39 µM in experiment [7], 33.2 µM in experiment [8], 36.2 µM in experiment [9] and above 49.4 µM in [10].
On to `CCOC(=O)CCN1C(=O)c2c(NC(=O)C(=O)O)cccc2S1(=O)=O`, for which the TGI in [1], in experiment [2], in experiment [3], in experiment [4], in experiment [5] and in experiment [6] was above 100 µM in each case. Besides, the TGI in experiment [7], in [8], in experiment [9] and in experiment [10] was above 100 µM each time.
On to `Cc1cc(C)c(N)c(CO)c1`, for which the GI50 was 1.17 µM and 4.31 µM in experiment [1]; > 100 µM and 32.3 µM in experiment [2]; 0.236 µM and 1.26 µM in experiment [9]. Moreover, the TGI in experiment [1] is 6.61 µM and 19 µM; in [2], above 100 µM; in experiment [3], above 100 µM; in experiment [4], above 100 µM; in experiment [5] it was above 100 µM; in experiment [6], above 100 µM. The TGI in experiment [7] was above 100 µM; in experiment [8] it was above 100 µM; in [9], 1.73 µM and 4.56 µM; in experiment [10], above 100 µM.
Turning to `CC(=O)OC1COC(n2c(N)c(C#N)c(-c3ccccc3)c(C#N)c2=S)C(OC(C)=O)C1OC(C)=O` (centres undefined), the TGI in experiment [1] is above 100 µM; in experiment [2] it was 83.1 µM and > 100 µM; in experiment [3], above 100 µM; in [4], > 100 µM and 92.6 µM; in experiment [5] it was above 100 µM; in experiment [6], above 100 µM. Also, the TGI is above 100 µM in experiment [7]; above 100 µM in experiment [8]; above 100 µM in [9]; 79 µM and 76.7 µM in [10]. Besides, the GI50 in experiment [9] is 41.6 µM and 89.4 µM.
`CC1C/C(=C\c2ccc(O)c(O)c2)C(=O)/C(=C/c2ccc(O)c(O)c2)C1` (centres undefined): the TGI amounted to 32.8 µM in [1]; 14.4 µM in experiment [2]; 20.9 µM in [3]; 18.7 µM in experiment [4]; 25.1 µM in experiment [5]; 21.6 µM in [6]. In addition, the TGI in [7] worked out at 57.7 µM; in [8] it was 32.1 µM; in experiment [9] it was 9.64 µM; in experiment [10], 23.4 µM.
Turning to `O=C(Nc1ccccc1C(=O)O)C(=Cc1ccccc1O)NC(=O)c1ccccc1`, the TGI in experiment [1], in experiment [2], in experiment [3], in experiment [4], in experiment [5] and in experiment [6] was above 100 µM in each case. Besides, the TGI in experiment [7], in experiment [8], in [9] and in experiment [10] was above 100 µM in each case.
Consider `CCN(CC)CCC1(C(=O)OC)SCCc2ccc(C)cc21` (centres undefined), for which the TGI in experiment [1], in [2], in experiment [3], in experiment [4], in experiment [5] and in experiment [6] was above 100 µM in each case. Moreover, the TGI in experiment [7], in experiment [8], in experiment [9] and in experiment [10] was above 100 µM throughout.
As to `COc1nc2ncc([C@@H](O)[C@H](O)CO)nc2c(=O)[nH]1`, the TGI in [1], in [2], in experiment [3], in experiment [4], in experiment [5] and in [6] was above 100 µM throughout. Moreover, the TGI in experiment [7], in [8], in [9] and in experiment [10] was above 100 µM each time.
With `CSC(=N/N=C(\C)c1ccc(S(=O)(=O)N(C)c2ccccc2)cc1)SC`, the TGI in [1], in experiment [2], in experiment [3], in experiment [4], in experiment [5] and in experiment [6] was above 100 µM each time. The TGI in [7], in [8], in experiment [9] and in [10] was above 100 µM each time.
